Measured values taken from patent publication US20240002383A1 (priority 2021, published 2024).
“Also recorded” adds a separate entry of the source.

Legend:
HIV NHR trimer (N3G) = type: in vivo; conditions: mice, CF501 as adjuvant, sera 7 days after the second vaccination
[1] = test system: IFNb, CXCL-10, CXCL-9, CCL-2, TNFα, IL-1β, and IL-6 in lymph nodes; experiment: Innate immune response in mice after intramuscular injection of STING agonists (qPCR of cytokines in draining lymph nodes); type: in vivo; conditions: 20 μg intramuscular, 6 hrs
[2] = test system: cytokines in draining lymph nodes; conditions: mouse, in vivo
[3] = test system: IFNγ, TNFα and IL-4 secretion; set-up: species or system mice; conditions: mouse, in vivo
SARS-CoV-2 pseudovirus = test system: SARS-CoV-2 pseudovirus; set-up: species or system New Zealand white rabbits; conditions: rabbit, in vivo

Structure (SMILES)	production of the cytokines in lymph nodes [1]	neutralizing antibodies relative to Alum (in words) (SARS-CoV-2 pseudovirus)	further results
CCn1nc(C)cc1C(=O)Nc1nc2cc(C(N)=O)cnc2n1C/C=C/Cn1c(NC(=O)c2cc(C)nn2CC)nc2cc(C(N)=O)cc(OCCCN3CCOCC3)c21 [CF501, (E)-3-(4-(5-carbamoyl-2-(1-ethyl-3-methyl-1H-pyrazole-5-carboxamido)-7-(3-morpholinopropoxy)-1H-benzo[d]imidazol-1-yl)but-2-en-1-yl)-2-(1-ethyl-3-methyl-1H-pyrazole-5-carboxamido)-3H-imidazo[4,5-b]pyridine-6-carboxamide]	can activate a large production of the cytokines; also recorded: more potently than cGAMP		antibody immune response to the HIV NHR trimer (N3G) (HIV NHR trimer (N3G)): can significantly enhance the antibody immune response in vaccinated mice; inflammation in the mice (transient activation, safety) [2]: does not cause inflammation in the mice; T cell immune response in mice [3]: can strongly activate the T cell immune response in mice
CCn1nc(C)cc1C(=O)Nc1nc2cc(C(N)=O)ccc2n1C/C=C/Cn1c(NC(=O)c2cc(C)nn2CC)nc2cc(C(N)=O)cnc21 [CF502, (E)-3-(4-(5-carbamoyl-2-(1-ethyl-3-methyl-1H-pyrazole-5-carboxamido)-1H-benzo[d]imidazol-1-yl)but-2-en-1-yl)-2-(1-ethyl-3-methyl-1H-pyrazole-5-carboxamido)-3H-imidazo[4,5-b]pyridine-6-carboxamide]		could not induce more potent neutralizing antibodies relative to Alum in the rabbits	
CCn1nc(C)cc1C(=O)Nc1nc2cc(C(N)=O)cnc2n1C/C=C/Cn1c(NC(=O)c2cc(C)nn2CC)nc2cc(C(N)=O)cc(OCCCN3CCNCC3)c21 [CF508, (E)-3-(4-(5-carbamoyl-2-(1-ethyl-3-methyl-1H-pyrazole-5-carboxamido)-7-(3-(piperazin-1-yl)propoxy)-1H-benzo[d]imidazol-1-yl)but-2-en-1-yl)-2-(1-ethyl-3-methyl-1H-pyrazole-5-carboxamido)-3H-imidazo[4,5-b]pyridine-6-carboxamide]		could not induce more potent neutralizing antibodies relative to Alum in the rabbits	
CCn1nc(C)cc1C(=O)Nc1nc2cc(C(N)=O)cnc2n1C/C=C/Cn1c(NC(=O)c2cc(C)nn2CC)nc2cc(C(N)=O)cc(OCCN3CCOCC3)c21 [CF510, (E)-3-(4-(5-carbamoyl-2-(1-ethyl-3-methyl-1H-pyrazole-5-carboxamido)-7-(2-morpholinoethoxy)-1H-benzo[d]imidazol-1-yl)but-2-en-1-yl)-2-(1-ethyl-3-methyl-1H-pyrazole-5-carboxamido)-3H-imidazo[4,5-b]pyridine-6-carboxamide]		could not induce more potent neutralizing antibodies relative to Alum in the rabbits	
CCn1nc(C)cc1C(=O)/N=c1\n(C)c2cc(C(N)=O)cnc2n1C/C=C/Cn1/c(=N/C(=O)c2cc(C)nn2CC)n(C)c2cc(C(N)=O)cc(OCCCN3CCOCC3)c21 [CF512, (E)-3-((E) 4-((E)-5-carbamoyl-2-((1-ethyl-3-methyl-1H-pyrazole-5-carbonyl)imino)-3-methyl-7-(3-morpholinopropoxy)-2,3-dihydro-1H-benzo[d]imidazol-1-yl)but-2-en-1-yl)-2-((1-ethyl-3-methyl-1H-pyrazole-5-carbonyl)imino)-1-methyl-2,3-dihydro-1H-imidazo[4,5-b]pyridine-6-carboxamide]		could not induce more potent neutralizing antibodies relative to Alum in the rabbits	
Nc1nc2c(ncn2[C@@H]2O[C@@H]3COP(=O)(O)O[C@H]4[C@@H](O)[C@H](n5cnc6c(N)ncnc65)O[C@@H]4COP(=O)(O)O[C@H]3[C@H]2O)c(=O)[nH]1 [cGAMP, 3′-3′ cGAMP, reference compound]	can activate a large production of the cytokines		
